Reference: ChEMBL document CHEMBL3885861, “Open TG-GATES”

Species: Rattus norvegicus
Assay: Open TG-GATES - Regimen: Single
Type: toxicity, organism-based, Sprague-Dawley
Set-up: regimen Single, gender Male, age 6 weeks
Conditions: in vivo, po, 0 mg/kg, route gavage, dose level Control; for APTT / Bas / Eos / Fbg / Hb / Ht / Lym / MCHC / MCV / Mono / Neu / PT / Plat / RBC / Ret / WBC: tissue Blood; for KIDNEY_L / KIDNEY_R / KIDNEY_TOTAL: tissue Kidney; for LIVER: tissue Liver; for ALP / ALT / AST / BUN / CRE / Ca / Cl / DBIL / GLC / IP / K / LDH / Na / PL / RALB / TBIL / TC / TG / TP / gamma-GTP: tissue Plasma

## CS(=O)(=O)Nc1ccc([N+](=O)[O-])cc1Oc1ccccc1 [NIMESULIDE]
3 h
  TERMINAL_BW: 201.3 g
  APTT: 17.1 s
  Bas: 0%
  Eos: 1.4%
  Fbg: 212 mg/dL
  Hb: 14.1 g/dL
  Ht: 41.1%
  Lym: 77%
  MCHC: 34.3%
  MCV: 64.2 fL
  Mono: 6.2%
  Neu: 15.6%
  PT: 12.4 s
  Plat: 118.2 x10_4/uL
  RBC: 640.8 x10_4/ul
  Ret: 10.6%
  WBC: 89.8 x10_2/uL
  KIDNEY_L: 0.9 g
  KIDNEY_R: 0.9 g
  KIDNEY_TOTAL: 1.9 g
  LIVER: 9.7 g
  ALP: 917.4 IU/L
  ALT: 37.4 IU/L
  AST: 63.4 IU/L
  BUN: 12.4 mg/dL
  CRE: 0.5 mg/dL
  Ca: 11 mg/dL
  Cl: 105.4 meq/L
  DBIL: 0.048 mg/dL
  GLC: 197.2 mg/dL
  IP: 9.6 mg/dL
  K: 4.8 meq/L
  LDH: 65.8 IU/L
  Na: 141.8 meq/L
  PL: 133.6 mg/dL
  RALB: 3.7 g/dL
  TBIL: 0.3 mg/dL
  TC: 75 mg/dL
  TG: 57.4 mg/dL
  TP: 5.3 g/dL
  gamma-GTP: 1.6 IU/L
6 h
  TERMINAL_BW: 196.6 g
  APTT: 17.7 s
  Bas: 0%
  Eos: 1%
  Fbg: 209.6 mg/dL
  Hb: 13.6 g/dL
  Ht: 40.3%
  Lym: 72.6%
  MCHC: 33.7%
  MCV: 65.3 fL
  Mono: 7.8%
  Neu: 19%
  PT: 12.5 s
  Plat: 116.9 x10_4/uL
  RBC: 617.4 x10_4/ul
  Ret: 11.4%
  WBC: 109.3 x10_2/uL
  KIDNEY_L: 0.8 g
  KIDNEY_R: 0.9 g
  KIDNEY_TOTAL: 1.7 g
  LIVER: 8.5 g
  ALP: 832.8 IU/L
  ALT: 35.8 IU/L
  AST: 63.2 IU/L
  BUN: 12.4 mg/dL
  CRE: 0.6 mg/dL
  Ca: 10.7 mg/dL
  Cl: 105.6 meq/L
  DBIL: 0.062 mg/dL
  GLC: 188 mg/dL
  IP: 10.2 mg/dL
  K: 4.9 meq/L
  LDH: 62.6 IU/L
  Na: 140.4 meq/L
  PL: 139.6 mg/dL
  RALB: 3.7 g/dL
  TBIL: 0.4 mg/dL
  TC: 83.2 mg/dL
  TG: 52.8 mg/dL
  TP: 5.2 g/dL
  gamma-GTP: 2 IU/L
9 h
  TERMINAL_BW: 196.3 g
  APTT: 17.5 s
  Bas: 0%
  Eos: 1%
  Fbg: 204.8 mg/dL
  Hb: 13.4 g/dL
  Ht: 39.5%
  Lym: 71.6%
  MCHC: 33.9%
  MCV: 64.3 fL
  Mono: 9%
  Neu: 18.6%
  PT: 12.4 s
  Plat: 110.8 x10_4/uL
  RBC: 614 x10_4/ul
  Ret: 10.8%
  WBC: 94 x10_2/uL
  KIDNEY_L: 0.9 g
  KIDNEY_R: 1 g
  KIDNEY_TOTAL: 1.9 g
  LIVER: 8.3 g
  ALP: 898.6 IU/L
  ALT: 31.4 IU/L
  AST: 59.8 IU/L
  BUN: 12.4 mg/dL
  CRE: 0.5 mg/dL
  Ca: 10.6 mg/dL
  Cl: 106 meq/L
  DBIL: 0.028 mg/dL
  GLC: 193.6 mg/dL
  IP: 10.3 mg/dL
  K: 5 meq/L
  LDH: 79.2 IU/L
  Na: 138.4 meq/L
  PL: 128.4 mg/dL
  RALB: 4 g/dL
  TBIL: 0.3 mg/dL
  TC: 70.8 mg/dL
  TG: 47.6 mg/dL
  TP: 5.3 g/dL
  gamma-GTP: 1.2 IU/L
24 h
  TERMINAL_BW: 217.2 g
  APTT: 16.3 s
  Bas: 0%
  Eos: 1%
  Fbg: 201 mg/dL
  Hb: 13.1 g/dL
  Ht: 38.9%
  Lym: 71.6%
  MCHC: 33.7%
  MCV: 66 fL
  Mono: 10.8%
  Neu: 16.6%
  PT: 11.7 s
  Plat: 118.1 x10_4/uL
  RBC: 590.2 x10_4/ul
  Ret: 10.9%
  WBC: 107.9 x10_2/uL
  KIDNEY_L: 1 g
  KIDNEY_R: 1 g
  KIDNEY_TOTAL: 1.9 g
  LIVER: 10.4 g
  ALP: 1023 IU/L
  ALT: 35 IU/L
  AST: 62.8 IU/L
  BUN: 18.4 mg/dL
  CRE: 0.5 mg/dL
  Ca: 10.7 mg/dL
  Cl: 104.4 meq/L
  DBIL: 0.012 mg/dL
  GLC: 190.4 mg/dL
  IP: 7.8 mg/dL
  K: 4.9 meq/L
  LDH: 81.4 IU/L
  Na: 139.6 meq/L
  PL: 150.8 mg/dL
  RALB: 4.1 g/dL
  TBIL: 0.3 mg/dL
  TC: 79.8 mg/dL
  TG: 86.8 mg/dL
  TP: 5.5 g/dL
  gamma-GTP: 1.8 IU/L
